Like-named read-outs stand apart in the source and are kept apart here.
Legend:
Type in all cases: biochemical
PfOPRT [1] = target: T1, PfOPRT (Plasmodium falciparum, UniProt Q8I3Y0); assay: PfOPRT kinetic and inhibition assay (OMP with PA or PPi)
T1 construct: His6 (thrombin-cleavable) (N, cleaved yes); made in house; host or cells: E. coli BL21-AI
T1 sequence (Q8I3Y0 1-281): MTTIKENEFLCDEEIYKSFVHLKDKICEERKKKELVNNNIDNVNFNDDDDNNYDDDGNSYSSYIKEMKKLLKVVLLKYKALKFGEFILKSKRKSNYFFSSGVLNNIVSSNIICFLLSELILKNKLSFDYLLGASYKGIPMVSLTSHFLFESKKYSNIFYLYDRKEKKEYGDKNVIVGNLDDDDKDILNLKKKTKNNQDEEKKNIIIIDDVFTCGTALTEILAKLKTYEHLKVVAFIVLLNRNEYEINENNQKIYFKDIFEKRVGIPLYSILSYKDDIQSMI
Method: (§1) Expression and Purification of PfOPRT and HsOPRT. The pDEST14 vectors encoding the two OPRT genes were transformed into BL21-AI E. coli competent cells and grown in LB+Amp (100 μg mL^−1) at 37° C. to an OD600 of 0.6. Protein expression was induced by adding 0.02% L-arabinose with overnight growth at 37° C. Cells were harvested by centrifugation at 4° C., weighted and resuspended in lysis buffer (20 mM Tris-HCl, 500 mM NaCl and 5 mM Imidazole, pH=7.9, 3 mL/gram cell pellet). Lysozyme (100 μg mL^−1), DNase I (10 μg mL^−1) and protease inhibitor (1 tablet/8 grams of cells) (Roche Applied Science, Indianapolis, Ind.) were added to the solution. Following disruption in a French Press, cell lysate was centrifuged at 30,000 g for […] at 4° C. […] The 6×His-OPRTs were eluted with a gradient of imidazole (20 mM ˜500 mM). The OPRT bands were visualized on SDS-PAGE gels and fractions with high purity were pooled, made to 10% glycerol and 10 mM β-ME (final concentration), concentrated and dialyzed overnight at 4° C. to remove imidazole. His-tags were removed during dialysis by the presence of thrombin (1 unit/0.1 mg). His-tag free OPRTs were purified by Superdex 200 26/60 Gel filtration column, concentrated and stored at −80° C. […] Reactions were monitored by the absorbance increase at 295 nm to give an extinction coefficient of 3.67 mM^−1 cm^−1.

HsOPRT [2] = target: T2, HsOPRT (Homo sapiens, UniProt P11172); assay: HsOPRT kinetic and inhibition assay (OMP with PA or PPi)
T2 construct: This HsUMPase truncation construct only expresses its HsOPRT domain; His6 (thrombin-cleavable) (N, cleaved yes); made in house; host or cells: E. coli BL21-AI
T2 sequence (P11172 1-245): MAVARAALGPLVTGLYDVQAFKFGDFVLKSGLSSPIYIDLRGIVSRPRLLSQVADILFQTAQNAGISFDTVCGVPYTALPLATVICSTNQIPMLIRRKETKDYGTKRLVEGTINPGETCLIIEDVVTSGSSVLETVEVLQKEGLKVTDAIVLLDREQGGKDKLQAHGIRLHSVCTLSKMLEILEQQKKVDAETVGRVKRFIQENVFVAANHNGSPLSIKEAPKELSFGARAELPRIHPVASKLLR
Method: as §1

PfOPRT [3] = target: T1, PfOPRT; assay: PfOPRT catalytic activity with p-nitrophenyl β-D-ribose 5′-phosphate as substrate; conditions: with PA or pyrophosphate; absorbance at 400 nm; conditions could detect 10^−6 of normal activity
Method: (§2) The PfOPRT and HsOPRT catalytic activities with p-nitrophenyl β-D-ribose 5′-phosphate were measured at 25° C. in solutions containing 50 mM Tris-HCl (pH=8.0), 5 mM MgCl2 and varied concentrations of p-nitrophenyl β-D-ribose 5′-phosphate and PA or pyrophosphate. Reaction rates were monitored through the absorbance increase at 400 nm.

HsOPRT [4] = target: T2, HsOPRT; assay: HsOPRT catalytic activity with p-nitrophenyl β-D-ribose 5′-phosphate as substrate; conditions: with PA or pyrophosphate; absorbance at 400 nm
Method: as §2

[5] = competitive inhibition with respect to OMP, PPi as substrate, 25° C., pH 8.0

## O=C(O)c1cc(=O)[nH]c(=O)n1[C@@H]1O[C@H](COP(=O)(O)O)[C@@H](O)[C@H]1O [OMP, orotidine 5′-monophosphate, reference compound]
PfOPRT [1]; OMP, PA versus PPi
  reduction of kcat/Km with PA relative to PPi as the nucleophile: 110 fold
HsOPRT [2]; OMP, PA versus PPi
  reduction of kcat/Km with PA relative to PPi as the nucleophile: 8.3 fold

## O=[N+]([O-])c1ccc(O[C@@H]2O[C@H](COP(=O)(O)O)[C@@H](O)[C@H]2O)cc1 [p-nitrophenyl β-D-ribose 5′-phosphate]
PfOPRT [1]
  Ki: 40 nM
PfOPRT [1]; Km of OMP over Ki of inhibitor
  Km/Ki: 93
HsOPRT [2]
  Ki: 41 nM
HsOPRT [2]; Km of OMP over Ki of inhibitor
  Km/Ki: 38
PfOPRT [3]
  catalytic activity as substrate (O-glycosidic bond cleavage): did not catalyze the O-glycosidic bond cleavage
HsOPRT [4]
  catalytic activity as substrate (O-glycosidic bond cleavage): Poor catalytic activity

## O=[N+]([O-])c1ccc(O[C@@H]2O[C@H](CO)[C@@H](O)[C@H]2O)cc1 [p-nitrophenyl β-D-ribose, reference compound]
PfOPRT [1]; [5]
  Ki: 188 nM
HsOPRT [2]; [5]
  Ki: 121 nM

From patent publication US20110301104A1, “Transition state structure of orotate phosphoribosyl transferases and uses thereof” (priority 2008, published 2011)
